Measured values from patent US8937152B2, “Non-selective somatostatin analogues” (Italfarmaco SpA, priority 2007, dated 2015).
Read-outs that look alike come from different tables or passages of the source. *1 amine or outer side, *2 acyl side, *3 side chain or, on linkers, in order; H or OH if unused. Where a SMILES comes first, the peptide text is derived from it. Side-chain parts run from the residue outwards. [ ]: non-standard residue; d: D form. The star is where a group is joined. Ethylenediamine = C(CN[*:2])N[*:1]; Hyp = O=C(O)[C@@H]1C[C@@H](O)CN1; Phg = N[C@H](C(=O)O)c1ccccc1; CO = O=C([*:1])[*:2]; Bn = c1ccc(C*)cc1

Key:
[1] = Pharmacokinetic profile in rats, subcutaneous; type: in vivo; conditions: rat, sc, male rats, 1 mg/kg, plasma; for half-life: read-out: t½ (converted)
Description: Assay for the Pharmacokinetic Profile
The compounds of the invention also show, in rats, a very favourable pharmacokinetic profile. The pharmacokinetic profile was measured by administering the compounds to male rates, subcutaneously, at the dose of 1 mg/kg (CD, Sprague Dawley; 200-250 g). Blood samples were collected, at different times, up to 72 hours after the administration. The concentrations of the compound under examination were measured in the separated plasma samples, by means of an LC-MS/MS analysis method and the values were processed according to a non-compartmental model using the software “Kinetica”. In the following table, the main pharmacokinetic parameters obtained with the compound of example 1 are reported, compared with those obtained with PASIREOTIDE, another stable analogue of somatostatin, currently in clinical development phase (PASIREOTIDE was prepared by following the process described in WO2002010192).

hSSTR1 = target: T1, hSSTR1 (Homo sapiens, UniProt P30872); experiment: Binding assay, displacement of 3-[125I]iodotyrosyl11 Somatostatin-14; conditions: recombinant human receptor, cell membranes; 60 min at 25° C.
T1 construct: expressed in transfected cells
T1 sequence (P30872 whole entry): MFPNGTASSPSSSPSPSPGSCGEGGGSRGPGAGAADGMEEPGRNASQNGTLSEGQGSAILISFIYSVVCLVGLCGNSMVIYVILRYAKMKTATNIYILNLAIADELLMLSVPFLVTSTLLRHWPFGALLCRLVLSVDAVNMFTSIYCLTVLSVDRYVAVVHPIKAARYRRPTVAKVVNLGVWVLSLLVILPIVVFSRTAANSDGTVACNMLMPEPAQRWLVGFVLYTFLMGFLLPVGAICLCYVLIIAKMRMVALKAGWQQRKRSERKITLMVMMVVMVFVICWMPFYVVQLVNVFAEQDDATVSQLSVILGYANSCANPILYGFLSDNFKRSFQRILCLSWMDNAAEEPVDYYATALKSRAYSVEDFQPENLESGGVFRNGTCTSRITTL
Description: (§1) The binding assays were carried out, as is explained below, by using preparations of recombinant human receptors, hSSTR1, hSSTR2, hSSTR3 and hSSTR5, obtained from cell membranes (for example CHO) transfected according to standard methods.
(§2) The membranes are incubated in duplicate for 60 min. at 25° C. with 3-[125I]iodotyrosyl11Somatostatin-14 (Amersham, IM161, 2000 Ci/mmol) as radioligand and with increasing concentrations of the compound under examination, in 25 mM Hepes (pH 7.4) buffer, containing 5 mM MgCl2, 1 mM CaCl2, 10 μg/ml of Saponin, 0.5% BSA. The incubation is terminated by means of filtration with a Filtermate Harvester (Perkin Elmer) through GF/B filters, which are then washed 6 times with buffer (25 mM Hepes pH 7.4, 5 mM MgCl2, 1 mM CaCl2). The radioactivity of the filters is measured in a TopCount™ or MicroBeta™ reader for 1 min/well after having added the Microscint 20 liquid scintillation (Packard) and incubated for 15 min. in an orbital stirrer. The results are expressed as specific binding percentage of the radio-marked ligand, in the presence of increasing concentrations of the compound under examination. The IC50 values were calculated by using the “GraphPad Prism” software (IC50=concentration of compound necessary for obtaining half of the maximum inhibition, in the competitive binding test described above).

hSSTR2 = target: T2, hSSTR2 (Homo sapiens, UniProt P30874); experiment: as above; conditions: cell membranes, 60 min at 25° C.
T2 construct: expressed in transfected cells
T2 sequence (P30874 whole entry): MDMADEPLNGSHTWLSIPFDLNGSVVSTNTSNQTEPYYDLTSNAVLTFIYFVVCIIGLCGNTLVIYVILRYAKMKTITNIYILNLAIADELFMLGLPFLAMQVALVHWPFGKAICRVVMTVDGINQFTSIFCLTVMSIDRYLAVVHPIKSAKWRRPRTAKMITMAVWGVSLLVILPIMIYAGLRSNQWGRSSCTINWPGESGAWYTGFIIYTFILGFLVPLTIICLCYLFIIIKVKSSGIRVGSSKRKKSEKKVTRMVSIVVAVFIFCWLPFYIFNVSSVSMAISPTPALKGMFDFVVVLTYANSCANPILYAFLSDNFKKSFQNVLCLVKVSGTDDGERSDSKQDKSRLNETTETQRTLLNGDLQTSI
Description: as §1, §2

hSSTR3 = target: T3, hSSTR3 (Homo sapiens, UniProt P32745); experiment: as above; conditions: cell membranes, 60 min at 25° C.
T3 construct: expressed in transfected cells
T3 sequence (P32745 whole entry): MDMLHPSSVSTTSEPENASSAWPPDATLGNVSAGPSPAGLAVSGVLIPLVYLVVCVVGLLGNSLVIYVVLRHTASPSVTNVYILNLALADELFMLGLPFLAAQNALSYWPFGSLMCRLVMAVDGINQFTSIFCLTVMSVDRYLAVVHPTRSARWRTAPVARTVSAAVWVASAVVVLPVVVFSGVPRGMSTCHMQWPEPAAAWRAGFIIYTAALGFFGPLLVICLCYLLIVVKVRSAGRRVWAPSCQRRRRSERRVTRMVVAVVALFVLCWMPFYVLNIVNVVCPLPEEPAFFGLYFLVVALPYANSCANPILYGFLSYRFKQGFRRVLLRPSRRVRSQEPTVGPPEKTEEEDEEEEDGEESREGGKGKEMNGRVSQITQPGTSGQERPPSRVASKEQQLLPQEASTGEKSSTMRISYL
Description: as §1, §2

hSSTR5 = target: T4, hSSTR5 (Homo sapiens, UniProt P35346); experiment: as above; conditions: cell membranes, 60 min at 25° C.
T4 construct: expressed in transfected cells
T4 sequence (P35346 whole entry): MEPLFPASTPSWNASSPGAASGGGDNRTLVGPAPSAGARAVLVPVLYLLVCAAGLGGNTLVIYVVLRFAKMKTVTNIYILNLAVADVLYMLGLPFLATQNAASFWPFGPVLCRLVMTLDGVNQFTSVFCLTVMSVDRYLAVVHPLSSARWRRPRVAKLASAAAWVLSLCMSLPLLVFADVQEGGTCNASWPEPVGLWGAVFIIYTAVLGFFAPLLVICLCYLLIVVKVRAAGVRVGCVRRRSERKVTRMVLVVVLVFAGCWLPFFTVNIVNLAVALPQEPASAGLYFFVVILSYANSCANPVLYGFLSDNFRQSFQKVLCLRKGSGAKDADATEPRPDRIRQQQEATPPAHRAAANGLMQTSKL
Description: as §1, §2

[2] = test system: release of GH stimulated by Nembutal; experiment: In vivo inhibition of the GH production stimulated by barbiturates (Nembutal); parameters: species or system rat; conditions: male rats, subcutaneous
Description: Assay for the In Vivo Inhibition of the GH Production, Stimulated by Barbiturates
The compounds are administrated subcutaneously, at different doses, in male rats (CD, Harlan Italy). Blood samples are collected, at different times, one hour after the animals were anesthetised by means of intraperitoneal administration of Nembutal (60 mg/kg); the hormone levels are measured by means of the ELISA test. In the animals treated with the compounds of the invention, at doses from 5 to 250 μg/kg, there is a decrease of the produced GH levels.

[3] = comparison value, source and conditions not stated; cited from earlier work
rat pituitary cells = conditions: 3 h
[4] = recombinant human receptor, read-out: IC50 (nM) hSSTR2
[5] = recombinant human receptor, read-out: IC50 (nM) hSSTR3
[6] = recombinant human receptor, read-out: IC50 (nM) hSSTR5

| Molecule | IC50 (hSSTR1) | IC50 (hSSTR2; [4]) | IC50 (hSSTR3; [5]) | IC50 (hSSTR5; [6]) | also measured |
| --- | --- | --- | --- | --- | --- |
| NCCCC[C@@H]1NC(=O)[C@@H](Cc2c[nH]c3ccccc23)NC(=O)[C@H](c2ccccc2)NC(=O)[C@@H]2C[C@@H](OC(=O)NCCN)CN2C(=O)[C@H](Cc2ccccc2)NC(=O)[C@H](Cc2ccc(OCc3ccccc3)cc2)NC1=O [PASIREOTIDE, reference compound] (cyclo([Hyp]([CO-Ethylenediamine])[Phg][dW]KY(Bn)F)) |  |  |  |  | AUC ([1]; Sprague Dawley (CD)): 2800 ng·h/mL; AUC(0-t) ([1]; Sprague Dawley (CD)): 2780 ng·h/mL; Cmax ([1]; Sprague Dawley (CD)): 668 ng/mL; MRT ([1]; Sprague Dawley (CD)): 4.87 h; Tmax ([1]; Sprague Dawley (CD)): 2 h; half-life ([1]; Sprague Dawley (CD)): 24.4 h |
| COc1ccc(OC)c(CCC2NC(=O)[C@H](Cc3ccccc3)NC(=O)[C@@H]3C[C@@H](OC(=O)NCCN)CN3C(=O)[C@H](Cc3ccccc3)NC(=O)[C@H](Cc3ccc(OCc4ccccc4)cc3)NC(=O)[C@H](CCCCN)NC2=O)c1 (single isomer, unassigned) [Example 6, cyclo[Tyr(Bn)-Phe-Pro(4-OCONH(CH2)2NH2)-Phe-(D,L)2,5 MhPhe-Lys]] | 10 nM | 25.8 nM | 0.52 nM | 0.64 nM |  |
| Fmoc-(D/L) 3-(3,8-dimethoxy-Naphthalene-2-yl)-Alanine [Example 1] |  |  |  |  | reduction of the release of GH ([2]; 5 μg/kg, six hours after the administration): 55%; reduction of GH, duration ([2]; 125 μg/kg, 24 hours after the administration): still measurable |
| COc1cc2cccc(OC)c2cc1CC1NC(=O)[C@H](Cc2ccccc2)NC(=O)[C@@H]2C[C@@H](OC(=O)NCCN)CN2C(=O)[C@H](Cc2ccccc2)NC(=O)[C@H](COCc2ccccc2)NC(=O)[C@H](CCCCN)NC1=O (single isomer, unassigned) [Example 15, cyclo[Ser(Bn)-Phe-Pro(4-OCONH(CH2)2NH2)-Phe-(D,L)3,8MNal-Lys]] | 1 nM | 7 nM | 1.8 nM | 1.62 nM |  |
| CNCCNC(=O)O[C@@H]1C[C@H]2C(=O)N[C@@H](Cc3ccccc3)C(=O)NC(Cc3cc4c(OC)cccc4cc3OC)C(=O)N[C@@H](CCCCN)C(=O)N[C@@H](Cc3ccc(OCc4ccccc4)cc3)C(=O)N[C@@H](Cc3ccccc3)C(=O)N2C1 (single isomer, unassigned) [Example 7, cyclo[Tyr(Bn)-Phe-Pro (4-OCONH(CH2)2NHCH3)-Phe-(D,L)3,8MNal-Lys]] | 5.8 nM | 9.2 nM | 1.33 nM | 0.97 nM |  |
| COc1cc2cccc(OC)c2cc1CC1NC(=O)[C@H](Cc2ccc(O)cc2)NC(=O)[C@@H]2C[C@@H](OC(=O)NCCN)CN2C(=O)[C@H](Cc2ccccc2)NC(=O)[C@H](Cc2ccc(OCc3ccccc3)cc2)NC(=O)[C@H](CCCCN)NC1=O (stereo partly shown) [Example 14, cyclo[Tyr(Bn)-Phe-Pro(4-OCONH(CH2)2NH2)-Tyr-(D,L)3,8MNal-Lys]] |  |  |  |  | IC50 (hSSTR2; IC50 (nM) hSSTR2, recombinant human receptor): 1.8 nM; IC50 (hSSTR3; IC50 (nM) hSSTR3, recombinant human receptor): 0.35 nM; IC50 (hSSTR5; IC50 (nM) hSSTR5, recombinant human receptor): 0.36 nM |
| COc1cc(CC2NC(=O)[C@H](Cc3ccccc3)NC(=O)[C@@H]3C[C@@H](OC(=O)NCCN)CN3C(=O)[C@H](Cc3ccccc3)NC(=O)[C@H](Cc3ccc(OCc4ccccc4)cc3)NC(=O)[C@H](CCCCN)NC2=O)c(OC)c2ccccc12 (single isomer, unassigned) [Example 9, cyclo[Tyr(Bn)-Phe-Pro(4-OCONH(CH2)2NH2)-Phe-(D,L)1,4-MNal-Lys]] | 32.4 nM | 9.9 nM | 2.34 nM | 1.9 nM |  |
| C[C@@H](O)[C@@H]1NC(=O)[C@H](CCCCN)NC(=O)[C@@H](Cc2c[nH]c3ccccc23)NC(=O)[C@H](Cc2ccccc2)NC(=O)[C@@H](NC(=O)[C@H](N)Cc2ccccc2)CSSC[C@@H](C(=O)N[C@H](CO)[C@@H](C)O)NC1=O [OCTREOTIDE] |  |  |  |  | t½ [3]: about 2 hours |
| COc1cc2cccc(OC)c2cc1CC1NC(=O)[C@H](Cc2ccccc2)NC(=O)[C@@H]2C[C@@H](OC(=O)NCCN)CN2C(=O)[C@H](Cc2ccccc2)NC(=O)[C@H](Cc2ccc(OCc3ccccc3)cc2)NC(=O)[C@H](CCCCN)NC1=O (single isomer, unassigned) [Example 5, cyclo[Tyr(Bn)-Phe-Pro(4-OCONH(CH2)2NH2)-Phe-(D,L)3,8MNal-Lys]] | 10.8 nM | 9.3 nM | 0.31 nM | 0.42 nM | AUC ([1]; CD, Sprague Dawley): 2880 ng·h/mL; AUC(0-t) ([1]; CD, Sprague Dawley): 2730 ng·h/mL; Cmax ([1]; CD, Sprague Dawley): 224 ng/mL; MRT ([1]; CD, Sprague Dawley): 19 h; Tmax ([1]; CD, Sprague Dawley): 4 h; half-life ([1]; CD, Sprague Dawley): 31.3 h; IC50 (rat pituitary cells): 1.3 nM |
| COc1cc(CC2NC(=O)[C@H](Cc3ccccc3)NC(=O)[C@@H]3C[C@@H](OC(=O)NCCN)CN3C(=O)[C@H](Cc3ccccc3)NC(=O)[C@H](Cc3ccc(OCc4ccccc4)cc3)NC(=O)[C@H](CCCCN)NC2=O)c(OC)c2ccccc12 (single isomer, unassigned) [Example 8, cyclo[Tyr(Bn)-Phe-Pro(4-OCONH(CH2)2NH2)-Phe-(D,L)1,4-MNal-Lys]] | 19.1 nM | 26.6 nM | 2.92 nM | 9.78 nM |  |
